Read-outs that look alike come from different tables or passages of the source.
Assays:
[1] = tested on: Aspergillus glaucus- DMO (Q); test: MBC (minimum bactericidal concentration) test in Wash NEXT reagent; assay type: cell-based; settings: for total kill at % preservative (MBC): at 14 days
Description: (§1) The stock organisms were thawed and subbed prior to beginning the MBC test. Molds were subbed to SDA plates one week before, and the bacteria were subbed to TAT agar plates 24 hours prior to the start of the test. All plates were incubated at 32 degrees C.
(§2) For the molds, each organism was inoculated into 40 ml sterile saline in a centrifuge tube to create a density of MacFarland #5. Two serial dilutions of 1:100 were then made, resulting in 10^−2 and 10^−4 concentrations. Each dilution was vortexed before it was sampled, and sterile Eppendorf pipette tips were used to make each transfer. The 10^−4 dilution was spiral plated to yield the initial inoculum concentration.
(§3) MBC trays were set up with the prepared test reagent. Using a Matrix pipettor, 100 μl aliquots of reagent were distributed into the wells, diluting the amount of preservative from 100% to 10% increments, using unpreserved reagent as the diluent. In one row, 100% non-preserved reagent acted as a positive control and served as a benchmark for a full mat of growth. In well #12H, 100 μl unpreserved reagent was pipetted, and this well was not inoculated with organisms, as it served as the negative control. Once all of the trays were prepared, the prepared bacteria/mold suspensions were poured into the MBC inoculating trays. These were placed onto the reagent trays, and 0.01 ml inoculum was introduced into the 100 μl of reagent in each well.
(§4) This was done by dipping a sterile cotton swab into each well, and absorbing all of the liquid in the well. The swab was rolled onto a TAT agar plate ensuring that the entire swab touches the agar. Plates ware incubated at 32 degrees C. for 48 hours to 7 days, depending on the organism. Observations for growth were performed by a scoring matrix using + for a full mat, +/− for some growth, a numerical value for an actual colony count, and—for no growth.
(§5) Below are tables that contain the data obtained in Example 1. The MBC test is scored by (+) indicating a full grown mat of organisms, equivalent to the organisms in the unpreserved reagent. (+/−) indicates there is some kill evident disturbing that mat or bringing the quantities down to an almost countable level. An actual number is the actual number of colonies growing at that concentration of preservative. (−) indicates no growth found. The MBC trays were stored at room temperature for the entire test.
(§6) The materials and methods and analysis of the MBC test were the same as in Example 1.

[2] = tested on: Ralstonia pickettii (AU); assay type: cell-based
Description: as §1
as §2, with “Each bacterial” for “For the molds, each”, “#1.” for “#5.”
as §3, §4, §5, §6

[N-]=[N+]=[N-] [Sodium Azide, sodium azide]
MBC test growth score ([1]; 10% preservative, 8 hour): + | MBC test growth score ([1]; 10% preservative, 24 hour): + | MBC test growth score ([1]; 10% preservative, 48 hour): + | MBC test growth score ([1]; 10% preservative, 72 hour): + | MBC test growth score ([1]; 10% preservative, 7 day): + | MBC test growth score ([1]; 10% preservative, 14 day): +/− | MBC test growth score ([1]; 20% preservative, 8 hour): + | MBC test growth score ([1]; 20% preservative, 24 hour): + | MBC test growth score ([1]; 20% preservative, 48 hour): + | MBC test growth score ([1]; 20% preservative, 72 hour): + | MBC test growth score ([1]; 20% preservative, 7 day): + | MBC test growth score ([1]; 20% preservative, 14 day): +/− | MBC test growth score ([1]; 30% preservative, 8 hour): + | MBC test growth score ([1]; 30% preservative, 24 hour): + | MBC test growth score ([1]; 30% preservative, 48 hour): + | MBC test growth score ([1]; 30% preservative, 72 hour): + | MBC test growth score ([1]; 30% preservative, 7 day): + | MBC test growth score ([1]; 30% preservative, 14 day): +/− | MBC test growth score ([1]; 40% preservative, 8 hour): + | MBC test growth score ([1]; 40% preservative, 24 hour): + | MBC test growth score ([1]; 40% preservative, 48 hour): + | MBC test growth score ([1]; 40% preservative, 72 hour): + | MBC test growth score ([1]; 40% preservative, 7 day): + | MBC test growth score ([1]; 40% preservative, 14 day): +/− | MBC test growth score ([1]; 50% preservative, 8 hour): + | MBC test growth score ([1]; 50% preservative, 24 hour): + | MBC test growth score ([1]; 50% preservative, 48 hour): + | MBC test growth score ([1]; 50% preservative, 72 hour): + | MBC test growth score ([1]; 50% preservative, 7 day): + | MBC test growth score ([1]; 50% preservative, 14 day): +/− | MBC test growth score ([1]; 60% preservative, 8 hour): + | MBC test growth score ([1]; 60% preservative, 24 hour): + | MBC test growth score ([1]; 60% preservative, 48 hour): + | MBC test growth score ([1]; 60% preservative, 72 hour): + | MBC test growth score ([1]; 60% preservative, 7 day): + | MBC test growth score ([1]; 60% preservative, 14 day): +/− | MBC test growth score ([1]; 70% preservative, 8 hour): + | MBC test growth score ([1]; 70% preservative, 24 hour): + | MBC test growth score ([1]; 70% preservative, 48 hour): + | MBC test growth score ([1]; 70% preservative, 72 hour): + | MBC test growth score ([1]; 70% preservative, 7 day): + | MBC test growth score ([1]; 70% preservative, 14 day): +/− | MBC test growth score ([1]; 80% preservative, 8 hour): + | MBC test growth score ([1]; 80% preservative, 24 hour): + | MBC test growth score ([1]; 80% preservative, 48 hour): + | MBC test growth score ([1]; 80% preservative, 72 hour): + | MBC test growth score ([1]; 80% preservative, 7 day): + | MBC test growth score ([1]; 80% preservative, 14 day): +/− | MBC test growth score ([1]; 90% preservative, 8 hour): + | MBC test growth score ([1]; 90% preservative, 24 hour): + | MBC test growth score ([1]; 90% preservative, 48 hour): + | MBC test growth score ([1]; 90% preservative, 72 hour): + | MBC test growth score ([1]; 90% preservative, 7 day): + | MBC test growth score ([1]; 90% preservative, 14 day): +/− | MBC test growth score ([1]; 100% preservative, 8 hour): + | MBC test growth score ([1]; 100% preservative, 24 hour): + | MBC test growth score ([1]; 100% preservative, 48 hour): + | MBC test growth score ([1]; 100% preservative, 72 hour): + | MBC test growth score ([1]; 100% preservative, 7 day): + | MBC test growth score ([1]; 100% preservative, 14 day): +/− | total kill at % preservative (MBC) ([1]; listed as Na Azide): No kill @ 100% | MBC test growth score ([2]; 10% preservative, 8 hour): + | MBC test growth score ([2]; 10% preservative, 24 hour): + | MBC test growth score ([2]; 10% preservative, 48 hour): + | MBC test growth score ([2]; 10% preservative, 72 hour): + | MBC test growth score ([2]; 20% preservative, 8 hour): + | MBC test growth score ([2]; 20% preservative, 24 hour): + | MBC test growth score ([2]; 20% preservative, 48 hour): + | MBC test growth score ([2]; 20% preservative, 72 hour): +/− | MBC test growth score ([2]; 30% preservative, 8 hour): + | MBC test growth score ([2]; 30% preservative, 24 hour): + | MBC test growth score ([2]; 30% preservative, 48 hour): +/− | MBC test growth score ([2]; 30% preservative, 72 hour): +/− | MBC test growth score ([2]; 40% preservative, 8 hour): + | MBC test growth score ([2]; 40% preservative, 24 hour): + | MBC test growth score ([2]; 40% preservative, 48 hour): +/− | MBC test growth score ([2]; 40% preservative, 72 hour): +/− | MBC test growth score ([2]; 50% preservative, 8 hour): + | MBC test growth score ([2]; 50% preservative, 24 hour): + | MBC test growth score ([2]; 50% preservative, 48 hour): +/− | MBC test growth score ([2]; 50% preservative, 72 hour): +/− | MBC test growth score ([2]; 60% preservative, 8 hour): + | MBC test growth score ([2]; 60% preservative, 24 hour): + | MBC test growth score ([2]; 60% preservative, 48 hour): +/− | MBC test growth score ([2]; 60% preservative, 72 hour): 10 | MBC test growth score ([2]; 70% preservative, 8 hour): + | MBC test growth score ([2]; 70% preservative, 24 hour): + | MBC test growth score ([2]; 70% preservative, 48 hour): +/− | MBC test growth score ([2]; 70% preservative, 72 hour): 8 | MBC test growth score ([2]; 80% preservative, 8 hour): + | MBC test growth score ([2]; 80% preservative, 24 hour): +/− | MBC test growth score ([2]; 80% preservative, 48 hour): +/− | MBC test growth score ([2]; 80% preservative, 72 hour): 7 | MBC test growth score ([2]; 90% preservative, 8 hour): + | MBC test growth score ([2]; 90% preservative, 24 hour): +/− | MBC test growth score ([2]; 90% preservative, 48 hour): +/− | MBC test growth score ([2]; 90% preservative, 72 hour): 4 | MBC test growth score ([2]; 100% preservative, 8 hour): + | MBC test growth score ([2]; 100% preservative, 24 hour): +/− | MBC test growth score ([2]; 100% preservative, 48 hour): +/− | MBC test growth score ([2]; 100% preservative, 72 hour): 2 | total kill at % preservative (MBC) ([2]; at 72 hours, listed as Na Azide): No kill @ 100%

Cc1cc(NS(=O)(=O)c2ccc(N)cc2)no1 [Sulfamethoxazole, sulfamethoxazole]
total kill at % preservative (MBC) [1]: No kill @ 100% | MBC test growth score ([2]; 10% preservative, 8 hour): + | MBC test growth score ([2]; 10% preservative, 24 hour): + | MBC test growth score ([2]; 10% preservative, 48 hour): + | MBC test growth score ([2]; 10% preservative, 72 hour): + | MBC test growth score ([2]; 20% preservative, 8 hour): + | MBC test growth score ([2]; 20% preservative, 24 hour): + | MBC test growth score ([2]; 20% preservative, 48 hour): + | MBC test growth score ([2]; 20% preservative, 72 hour): + | MBC test growth score ([2]; 30% preservative, 8 hour): + | MBC test growth score ([2]; 30% preservative, 24 hour): + | MBC test growth score ([2]; 30% preservative, 48 hour): + | MBC test growth score ([2]; 30% preservative, 72 hour): + | MBC test growth score ([2]; 40% preservative, 8 hour): + | MBC test growth score ([2]; 40% preservative, 24 hour): + | MBC test growth score ([2]; 40% preservative, 48 hour): + | MBC test growth score ([2]; 40% preservative, 72 hour): + | MBC test growth score ([2]; 50% preservative, 8 hour): + | MBC test growth score ([2]; 50% preservative, 24 hour): + | MBC test growth score ([2]; 50% preservative, 48 hour): + | MBC test growth score ([2]; 50% preservative, 72 hour): + | MBC test growth score ([2]; 60% preservative, 8 hour): + | MBC test growth score ([2]; 60% preservative, 24 hour): + | MBC test growth score ([2]; 60% preservative, 48 hour): + | MBC test growth score ([2]; 60% preservative, 72 hour): + | MBC test growth score ([2]; 70% preservative, 8 hour): + | MBC test growth score ([2]; 70% preservative, 24 hour): + | MBC test growth score ([2]; 70% preservative, 48 hour): + | MBC test growth score ([2]; 70% preservative, 72 hour): + | MBC test growth score ([2]; 80% preservative, 8 hour): + | MBC test growth score ([2]; 80% preservative, 24 hour): + | MBC test growth score ([2]; 80% preservative, 48 hour): + | MBC test growth score ([2]; 80% preservative, 72 hour): + | MBC test growth score ([2]; 90% preservative, 8 hour): + | MBC test growth score ([2]; 90% preservative, 24 hour): + | MBC test growth score ([2]; 90% preservative, 48 hour): + | MBC test growth score ([2]; 90% preservative, 72 hour): + | MBC test growth score ([2]; 100% preservative, 8 hour): + | MBC test growth score ([2]; 100% preservative, 24 hour): + | MBC test growth score ([2]; 100% preservative, 48 hour): + | MBC test growth score ([2]; 100% preservative, 72 hour): +
